One molecule from publication PMC12381739, “Druglike Molecular Degraders of the Oncogenic RNA-Binding Protein HuR” (JACS Au, 2025) can be followed below.

The structures appear in SMILES notation.

One assay concerns the target T1, HuR RRM1/2 (Homo sapiens, UniProt Q15717).
T1 construct: 20 nM of the 5′-FAM RNA probe and 500 nM of HuR RRM1/2
The assay can be described thus: Fluorescence polarization (FP) displacement assay, 5′ FAM-labeled RNA probe from HuR. The note with it: displacement of 5′-FAM RNA probe UAUUUAUUUA (20 nM) from 500 nM HuR RRM1/2; read-out: Binding affinity towards HuR in FP assay (Kd). The procedure: Following the synthesis, our initial aim was to ensure that the new derivatives retained their affinity for HuR’s RNA-binding pocket. Thus, a binding evaluation assay was conducted. As previously reported, the RNA-binding pocket of HuR specifically recognizes the UTR sequences of mRNAs, with […] identified as a common binding motif. To evaluate the binding of each degrader, we conducted a fluorescence-based assay utilizing a 5-carboxyfluorescein (5′ FAM)-labeled reporter. This fluorescence polarization (FP) assay is based on the displacement of the 5′ FAM-labeled mRNA from HuR’s RNA-binding pocket, which provides insight into both the binding affinity of the degrader and its capacity to disrupt the HuR-mRNA interaction, thereby serving as a means of validating target engagement. When the 5′ FAM-RNA probe is bound to HuR, it forms a binary complex, resulting in slower rotational movement and a consequently high FP signal. However, when either molecule displaces the 5′ FAM-labeled RNA, the probe is released into the solution, where it undergoes rapid rotation, leading to a significant reduction in the FP signal (Figure S3). This decrease in FP serves as a quantitative measure of the degrader’s ability to compete with mRNA for HuR binding. […] As mentioned above, we synthesized a series of HuR ligand derivatives featuring indole and benzothiophene cores, along with ester and carboxylic acid functional groups.
As previously reported, the sequence of the fluorescently labeled (5′-FAM) RNA probe is […]. The assays were performed in PBS buffer (20 mM sodium phosphate, 150 mM NaCl, 1 mM dithiothreitol, 0.05% PLURONIC-127, 15% DMSO) at 293 K. Fluorescence was measured using the Synergy H1 Hybrid Multi-Mode Microplate Reader (Biotek, Agilent) with excitation and emission wavelengths set to 485 and 528 nm, respectively. Each well of a 384-well plate contained 20 nM of the 5′-FAM RNA probe and 500 nM of HuR RRM1/2. Compounds were tested at eight concentrations (0.1 nM–100 μM), with compound 10 serving as a positive control and PBS as the negative control. The protein-mRNA mixture was incubated for 1.5 h to allow for binding interactions. After this incubation, the compounds were added, and the mixture was incubated for an additional hour. The FP emission of the resulting HuR-compound complex was then recorded. The percent inhibition of binding was calculated by comparing the FP values of experimental conditions to the PBS control. The FP value corresponding to the HuR-RNA complex in the presence of DMSO was used as the 100% complexation reference, while the FP value of the labeled RNA alone was set as 0% complexation. The dissociation constant (K d) for the compound-HuR binding interaction was determined by fitting the dose–response curve to specific binding models using Prism 10.2.2. All experiments were performed in triplicate.
In general terms: Fluorescence polarisation rises when a labelled molecule tumbles more slowly, as on binding a larger partner.

Another assay addresses HuR (Homo sapiens, UniProt Q15717). The assay can be described thus: HuR protein expression by western blot in MCF-7 cells. Format: cell-based. Set-up: endogenous in cells; host or cells: MCF-7. The source says: Michigan Cancer Foundation-7 (MCF-7) cells were chosen due to their documented overexpression of HuR, which has been linked to cancer pathogenicity in this specific cell line. , Consequently, reducing HuR expression to physiologically normal levels is considered a potential strategy for novel anticancer therapies targeting breast cancers associated with HuR overexpression.
Total protein was extracted using RIPA cell lysis buffer (BioPrep) containing a protease inhibitor, and protein concentration was measured using the BCA protein assay (Sigma-Aldrich) according to the manufacturer’s protocol. Approximately 30 μg of total protein were resolved on a 12% SDS-acrylamide gel and transferred to a PVDF membrane (Immobilon FL transfer membrane; Merck). The membrane was washed with 1× Tris-buffered saline (TBS) containing 0.1% (v/v) Tween-20 (TBST; Tris-base, pH 7.6, NaCl, and Tween-20) and blocked in 1× TBST containing 5% (w/v) BSA for 2 h at room temperature. The membrane was then incubated overnight at 4 °C with primary antibodies: a 1:1000 dilution of rabbit anti-ELAVL1/HuR (Cell Signaling Technology, #12582), a 1:1000 dilution of mouse anti-Bcl2 (Cell Signaling Technology, #15071), or a 1:10,000 dilution of rabbit anti-Vinculin (Cell Signaling Technology, #13901) in 1× TBST containing 5% (w/v) BSA. Following primary antibody incubation, the membrane was washed with 1× TBST and incubated with a 1:10,000 dilution of the appropriate horseradish-peroxidase-conjugated secondary antibody (antirabbit IgG: Cell Signaling, #7074 or antimouse IgG: Cell Signaling, #7076) at room temperature for 2 h. After washing three times with 1X TBST (10 min per wash), protein bands were visualized using Clear Band ECL Substrate (Gene Bio-Application) on the Azure C300 Imaging System. The fold change in the expression of the target proteins (HuR or Bcl2) was calculated by normalizing the band intensity to the Vinculin band intensity using ImageJ.
(In general: In western blotting, separated proteins are transferred to a membrane and probed.)

HuR, sequence (Q15717 whole entry): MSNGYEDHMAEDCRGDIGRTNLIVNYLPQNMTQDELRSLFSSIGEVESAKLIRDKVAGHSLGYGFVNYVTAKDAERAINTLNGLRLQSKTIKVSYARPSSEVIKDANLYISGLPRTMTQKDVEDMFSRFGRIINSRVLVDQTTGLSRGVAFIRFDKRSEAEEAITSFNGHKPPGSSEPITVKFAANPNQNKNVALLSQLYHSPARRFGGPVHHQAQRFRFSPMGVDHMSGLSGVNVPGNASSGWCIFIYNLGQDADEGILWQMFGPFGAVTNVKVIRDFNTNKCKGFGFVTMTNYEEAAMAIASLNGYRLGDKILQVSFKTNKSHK
T1 sequence (Q15717 18-186 limits assumed): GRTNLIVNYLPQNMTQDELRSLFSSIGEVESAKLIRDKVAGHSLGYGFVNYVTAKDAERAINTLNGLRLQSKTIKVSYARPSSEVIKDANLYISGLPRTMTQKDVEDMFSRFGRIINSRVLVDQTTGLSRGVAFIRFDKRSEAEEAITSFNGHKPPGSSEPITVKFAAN

`O=C1CCC(N2C(=O)c3cccc(NCc4cn(-c5ccc6sc(C(=O)O)cc6c5)nn4)c3C2=O)C(=O)N1` (stereo not drawn) [PRO-HuR3]: the Kd on HuR RRM1/2 was 30 nM. Further, the “reduction of HuR expression” value at HuR (MCF-7, 10 nM, 48 h) is recorded as 42%. In addition, at HuR (MCF-7, 10 μM), the “onset of activity (HuR degradation)” value was determined as 48 h and the “time-dependent response of HuR degradation” value is “showed a time-dependent response”. At HuR (MCF-7, 10 μM, 48 h), the “reduction of HuR expression” value is on record as ~75%. For the same molecule, the “degrader activity at intermediate concentration (hook effect)” value at HuR (around 0.1 μM, 48 h, MCF-7 and MDA-MB-231) is “loss of degrader activity”.

The term Kd denotes the concentration at which binding is half-saturated.
